Laboratory results as given in ChEMBL document CHEMBL2034873, “Discovery of a Novel Series of CHK1 Kinase Inhibitors with a Distinctive Hinge Binding Mode” (ACS Med Chem Lett, 2012).

Legend:
[1] = biological target: T1, Serine/threonine-protein kinase Chk1 (Homo sapiens, UniProt O14757); experiment: Inhibition of recombinant His-tagged CHK1 using biotin-RSGLYRSPSMPENLNRPR as substrate after 1 hr by scintillation proximity assay
T1 sequence (O14757 whole entry): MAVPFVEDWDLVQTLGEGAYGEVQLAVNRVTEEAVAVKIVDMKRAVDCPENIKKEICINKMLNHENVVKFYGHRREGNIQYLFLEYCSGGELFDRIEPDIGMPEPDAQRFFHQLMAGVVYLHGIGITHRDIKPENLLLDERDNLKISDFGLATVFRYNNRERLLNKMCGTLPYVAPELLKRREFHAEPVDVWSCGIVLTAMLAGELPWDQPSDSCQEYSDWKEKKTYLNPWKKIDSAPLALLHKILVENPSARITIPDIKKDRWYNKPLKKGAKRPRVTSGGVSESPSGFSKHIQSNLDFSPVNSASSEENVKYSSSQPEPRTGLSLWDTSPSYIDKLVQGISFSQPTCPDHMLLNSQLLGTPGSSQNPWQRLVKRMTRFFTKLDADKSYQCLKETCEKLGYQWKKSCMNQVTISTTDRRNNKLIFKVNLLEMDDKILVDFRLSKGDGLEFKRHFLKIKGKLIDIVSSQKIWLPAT

[2] = Selectivity ratio of IC50 for cyclinE/CDK2 to IC50 for CHK1
[3] = biological target: T1, Serine/threonine-protein kinase Chk1; experiment: Inhibition of CHK1 in human U2OS cells pretreated with hydroxyurea assessed as gamma-H2AX level after 2 hrs by immunofluorescence assay; format: cell-based
[4] = biological target: Cyclin-dependent kinase 2/cyclin E1 (Homo sapiens, UniProt P24941); experiment: Inhibition of Cyclin E/CDK2 expressed in Sf9 cells using [33gamma]ATP after 1 hr by liquid scintillation counter
[5] = biological target: T1, Serine/threonine-protein kinase Chk1; experiment: Binding affinity to CHK1 by affinity-selection-mass […] assay

Row | SMILES | IC50 [1] [nM] | Ratio IC50 [2] | EC50 [3] [nM] | IC50 [4] [nM] | Kd [5] [nM]
1 | CN(C)Cc1ccc(-c2nc(C(=O)Nc3ccccc3N3CCNCC3)cs2)cc1 | > 50000 |  |  |  | 
2 | O=C(Nc1ccccc1N1CCNCC1)c1csc(-c2cc[nH]n2)n1 | 110 | 33 |  |  | 
3 | O=C(Nc1ccccc1N1CCNCC1)c1cc(-c2ccc3c(c2)OCO3)on1 | 3400 |  |  |  | 
4 | CN1CCN(c2ccccc2NC(=O)c2csc(-c3ccc4c(c3)CCO4)n2)CC1 | 2000 | 0.16 |  |  | 
5 | C[C@@H]1CN(c2ccccc2NC(=O)c2csc(-c3ccc4c(c3)CCO4)n2)CCN1 | 120 | 2 |  |  | 
6 | C[C@H]1CN(c2ccccc2NC(=O)c2csc(-c3ccc4c(c3)CCO4)n2)CCN1 | 86 | 3 |  |  | 
7 | O=C(Nc1ccccc1N1CCNCC1)c1csc(-c2cc[nH]c2)n1 | 100 |  |  |  | 
8 | O=C(Nc1ccccc1N1CCOCC1)c1csc(-c2ccc3c(c2)CCO3)n1 | > 50000 |  |  |  | 
9 | O=C(Nc1ccccc1N1CCNCC1)c1csc(-c2cc3ccccc3s2)n1 | 7 | 33 | 1500 |  | 
10 | O=C(Nc1ccccc1N1CCNCC1)c1csc(-c2ccncc2)n1 | 1500 | 0.54 |  |  | 
11 | O=C(Nc1ccccc1N1CCNCC1)c1csc(-c2ccc(-c3cccs3)s2)n1 | 130 |  |  |  | 
12 | O=C(Nc1ccccc1N1CCNCC1)c1csc(-c2ccc3c(c2)OCO3)n1 | 170 | 18 |  |  | 
13 | O=C(Nc1ccccc1N1CCNCC1)c1csc(-c2ccc3c(c2)CCO3)n1 | 75 | 2.7 | 10000 | 210 | < 100
14 | CC(=O)N1CCN(c2ccccc2NC(=O)c2csc(-c3ccc4c(c3)CCO4)n2)CC1 | 4100 | 0.34 |  |  | 
15 | O=C(Nc1ccccc1C1=CCNCC1)c1csc(-c2ccc3c(c2)CCO3)n1 | 760 | 1.7 |  |  | 
16 | O=C(Nc1ccccc1N1CCNCC1)c1csc(-c2ccccc2)n1 | 87 | 12 |  |  | 
17 | O=C1CN(c2ccccc2NC(=O)c2csc(-c3ccc4c(c3)CCO4)n2)CCN1 | > 50000 |  |  |  | 
18 | Cc1nc(-c2ccc3c(c2)CCO3)sc1C(=O)Nc1ccccc1N1CCNCC1 | 21000 |  |  |  | 
19 | O=C(Nc1ccccc1N1CCNCC1)c1csc(-c2cccnc2)n1 | 1400 | 0.8 |  |  | 
20 | CC1CNCCN1c1ccccc1NC(=O)c1csc(-c2ccc3c(c2)CCO3)n1 (stereo unspecified) | 280 |  |  |  | 
21 | O=C(Nc1ccccc1N1CCNCC1)c1nc(-c2ccc3c(c2)CCO3)cs1 | > 50000 |  |  |  | 

Row | SMILES | IC50 [1] [nM] | Ratio IC50 [2] | EC50 [3] [nM] | IC50 [4] [nM] | Kd [5] [nM]
22 | O=C(Nc1ccccc1N1CCNCC1=O)c1csc(-c2ccc3c(c2)CCO3)n1 | > 50000 |  |  |  | 
23 | O=C(Nc1ccccc1N1CCNCC1)c1csc(-c2cn[nH]c2)n1 | 190 | 0.67 |  |  | 
24 | CN(C)c1ccc(-c2nc(C(=O)Nc3ccccc3N3CCNCC3)cs2)cc1 | 19 | 73 |  |  | 
25 | O=C(Nc1ccccc1N1CCNCC1)c1csc(-c2ccc3occc3c2)n1 | 19 | 27 | 2000 |  | 
26 | O=C(Nc1ccccc1N1CCNCC1)c1csc(-c2ccc[nH]2)n1 | 1200 |  |  |  | 
27 | COc1ccc(-c2nc(C(=O)Nc3ccccc3N3CCNCC3)cs2)cc1OC | 520 | 6.6 |  |  | 
28 | O=C(Nc1ccccc1N1CCNCC1)c1csc(-c2ccc3[nH]ccc3c2)n1 | 4 | 960 | 3500 |  | 
29 | CC#Cc1nc(C(=O)Nc2ccccc2N2CCNCC2)cs1 | 3900 |  |  |  | 
30 | O=C(Nc1ccccc1N1CCNCC1)c1csc(-c2cccs2)n1 | 36 | 16 |  |  | 
31 | O=C(Nc1ccccc1N1CCNCC1)c1csc(-c2cncnc2)n1 | 13000 |  |  |  | 
32 | O=C(Nc1ccccc1N1CCNCC1)c1csc(-c2csc3ccccc23)n1 | 69 | 6 |  |  | 
33 | O=C(Nc1ccccc1N1CCNCC1)c1csc(-c2ccc(-c3ccccc3)s2)n1 | 89 |  |  |  | 
34 | O=C(Nc1ccccc1N1CCNCC1)c1csc(-c2ccsc2)n1 | 210 | 5 |  |  | 
35 | O=C(Nc1ccccc1N1CCNCC1)c1csc(-c2ccc3c(c2)OCCCO3)n1 | 190 |  |  |  | 
36 | O=C(Nc1ccccc1N1CCNCC1)c1csc(-c2ccc3sccc3c2)n1 | 5 | 380 | 2500 |  | 
37 | O=C(Nc1ccccc1N1CCNCC1)c1csc(-c2ccc(Oc3ccccc3)cc2)n1 | 5 | 3600 | > 50000 |  | 
38 | COc1ccc(-c2nc(C(=O)Nc3ccccc3N3CCNCC3)cs2)cc1C | 580 | 12 |  |  | 
39 | O=C(Nc1ccccc1N1CCNCC1)c1csc(C#Cc2ccccc2)n1 | 440 | 32 |  |  | 
40 | COc1ccc(-c2nc(C(=O)Nc3ccccc3N3CCNCC3)cs2)cc1 | 72 | 5 |  |  | 
41 | O=C(Nc1ccccc1C1CCNCC1)c1csc(-c2ccc3c(c2)CCO3)n1 | 4500 | 1.8 |  |  | 
42 | N#Cc1ccc(-c2nc(C(=O)Nc3ccccc3N3CCNCC3)cs2)cn1 | 5200 |  |  |  | 
